From the supplement of paper PMC4314810
± gives the standard deviation of the averaged measurements.

tested on: MCF7; assay: HRG-induced Akt activation (dPAkt = log2 pAkt/Akt HRG-stimulated minus log2 pAkt/Akt basal) (log2 ratio difference); higher = stronger HRG-induced Akt(T308) phosphorylation; conditions: miRNA mimic concentration 10 nM; time after transfection 72 h; heregulin 10 ng/ml; stimulation time 1 h
Method in brief: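 MCF7 cells were plated […] in 96-well plates and transfected in two biological replicates with a library of 879 miRNA mimics (10 nM final) using Lipofectamine RNAiMax; 72 h later they were stimulated for 1 h with 10 ng/ml heregulin-beta1 or left unstimulated. After fixation in 4% PFA, phospho-Akt(T308) and total Akt were measured by In-Cell Western on an Odyssey, with signals corrected for column-wise fixation decay. Heregulin-induced Akt activation is the stimulated minus unstimulated value of the log ratio of phospho-Akt to total Akt, averaged over replicates. That log ratio is log2(pAkt/Akt).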

CCCCCACAACCGCGCUUGACUAGCU and CCCGGAGCCAGGAUGCAGCUC are within error of each other in “HRG-induced Akt activation (log2)” value: 1.4 ± 0.091 for the first, 1.79 ± 0.39 for the second.

CCCUGUGCCCGGCCCACUUCUG and CCGUCGCCGCCACCCGAGCCG are within 0.2 log units of each other in “HRG-induced Akt activation (log2)” value: 1.19 ± 0.05 for the first, 1.23 ± 0.13 for the second.

CCUAGUAGGUGUCCAGUAAGUGU and CCUAUUCUUGAUUACUUGUUUC are within error of each other in “HRG-induced Akt activation (log2)” value: 1.04 ± 0.63 for the first, 1.273 ± 0.0028 for the second.

CCUAUUCUUGGUUACUUGCACG and CCUCAGGGCUGUAGAACAGGGCU are within error of each other in “HRG-induced Akt activation (log2)” value: 1.29 ± 0.1 for the first, 1.49 ± 0.21 for the second.

First: CCUCCCACACCCAAGGCUUGCA
Second: CCUCCUGCCCUCCUUGCUGU
The “HRG-induced Akt activation (log2)” value of the first is lower: 1.37 ± 0.3 for the first, 2.4 ± 0.096 for the second.

Compared with CCUCUAGAUGGAAGCACUGUCU, CCUCUGAAAUUCAGUUCUUCAG is higher in “HRG-induced Akt activation (log2)” value: 1.41 ± 0.026 for the first, 1.76 ± 0.071 for the second.

Compared with CCUCUGGGCCCUUCCUCCAG, CCUCUUCCCCUUGUCUCUCCAG is higher in “HRG-induced Akt activation (log2)” value: 0.844 ± 0.012 for the first, 1.52 ± 0.031 for the second.

Compared with CCUGCAGCGACUUGAUGGCUUCC, CCUGGAAACACUGAGGUUGUG is higher in “HRG-induced Akt activation (log2)” value: 0.841 ± 0.6 for the first, 1.61 ± 0.12 for the second.

CCUGUUCUCCAUUACUUGGCUC and CCUGUUGAAGUGUAAUCCCCA are within error of each other in “HRG-induced Akt activation (log2)” value: 1.53 ± 0.36 for the first, 1.21 ± 0.058 for the second.

CGAAAACAGCAAUUACCUUUGC and CGAAUCAUUAUUUGCUGCUCUA are within 0.2 log units of each other in “HRG-induced Akt activation (log2)” value: 1.364 ± 0.0018 for the first, 1.44 ± 0.25 for the second.

Going from CGCAGGGGCCGGGUGCUCACCG to CGCAUCCCCUAGGGCAUUGGUGU, the “HRG-induced Akt activation (log2)” value rises from 1.59 ± 0.09 to 2.62 ± 0.28.

Going from CGCGGGUGCUUACUGACCCUU to CGGAUGAGCAAAGAAAGUGGUU, the “HRG-induced Akt activation (log2)” value falls from 3.25 ± 0.033 to 1.19 ± 0.07.

CGGCAACAAGAAACUGCCUGAG and CGGCCCGGGCUGCUGCUGUUCCU are within error of each other in “HRG-induced Akt activation (log2)” value: 1.46 ± 0.68 for the first, 1.09 ± 0.4 for the second.

Compared with CGGCGGGGACGGCGAUUGGUC, CGGCUCUGGGUCUGUGGGGA is lower in “HRG-induced Akt activation (log2)” value: 2.14 ± 0.33 for the first, 1.13 ± 0.17 for the second.

Compared with CGGGCGUGGUGGUGGGGG, CGGGGCAGCUCAGUACAGGAU is lower in “HRG-induced Akt activation (log2)” value: 1.56 ± 0.11 for the first, 0.9798 ± 0.0068 for the second.

Compared with CGGGGUUUUGAGGGCGAGAUGA, CGGGUCGGAGUUAGCUCAAGCGG is lower in “HRG-induced Akt activation (log2)” value: 2.25 ± 0.089 for the first, 1.44 ± 0.098 for the second.

CGGGUGGAUCACGAUGCAAUUU and CGUCAACACUUGCUGGUUUCCU are within 0.2 log units of each other in “HRG-induced Akt activation (log2)” value: 2.37 ± 0.063 for the first, 2.32 ± 0.12 for the second.

First: CGUCUUACCCAGCAGUGUUUGG
Second: CGUGCCACCCUUUUCCCCAG
The “HRG-induced Akt activation (log2)” value of the first is higher: 1.73 ± 0.13 for the first, 1.18 ± 0.34 for the second.

CGUGUAUUUGACAAGCUGAGUU and CGUGUUCACAGCGGACCUUGAU are within error of each other in “HRG-induced Akt activation (log2)” value: 2.29 ± 0.19 for the first, 1.89 ± 0.39 for the second.

CUAAUAGUAUCUACCACAAUAAA and CUACAAAGGGAAGCACUUUCUC are within 0.2 log units of each other in “HRG-induced Akt activation (log2)” value: 1.84 ± 0.24 for the first, 1.96 ± 0.15 for the second.

CUACAAAGGGAAGCCCUUUC and CUAGACUGAAGCUCCUUGAGG are within 0.2 log units of each other in “HRG-induced Akt activation (log2)” value: 1.62 ± 0.21 for the first, 1.46 ± 0.25 for the second.

Compared with CUAGGUAUGGUCCCAGGGAUCC, CUAGUGAGGGACAGAACCAGGAUUC is higher in “HRG-induced Akt activation (log2)” value: 1.26 ± 0.24 for the first, 1.82 ± 0.032 for the second.

CUAUACAACCUACUGCCUUCCC and CUAUACAAUCUACUGUCUUUC are within 0.2 log units of each other in “HRG-induced Akt activation (log2)” value: 1.27 ± 0.16 for the first, 1.11 ± 0.051 for the second.

CUAUACAAUCUAUUGCCUUCCC and CUAUACAGUCUACUGUCUUUCC are within error of each other in “HRG-induced Akt activation (log2)” value: 1.44 ± 0.43 for the first, 1.85 ± 0.18 for the second.

First: CUAUACGACCUGCUGCCUUUCU
Second: CUAUACGGCCUCCUAGCUUUCC
The “HRG-induced Akt activation (log2)” value of the first is lower: 1.47 ± 0.14 for the first, 1.9 ± 0.13 for the second.

CUCAGUAGCCAGUGUAGAUCCU and CUCAUCUGCAAAGAAGUAAGUG are within 0.2 log units of each other in “HRG-induced Akt activation (log2)” value: 1.53 ± 0.16 for the first, 1.5 ± 0.58 for the second.

CUCCAGAGGGAAGUACUUUCU and CUCCAGAGGGAUGCACUUUCU are within 0.2 log units of each other in “HRG-induced Akt activation (log2)” value: 2.02 ± 0.14 for the first, 1.83 ± 0.3 for the second.

Compared with CUCCCACAUGCAGGGUUUGCA, CUCCCACUGCUUCACUUGACUA is lower in “HRG-induced Akt activation (log2)” value: 1.81 ± 0.022 for the first, 1.32 ± 0.27 for the second.

First: CUCCGUUUGCCUGUUUCGCUG
Second: CUCCUACAUAUUAGCAUUAACA
The “HRG-induced Akt activation (log2)” value of the first is higher: 2.07 ± 0.2 for the first, 1.12 ± 0.31 for the second.

CUCCUAUAUGAUGCCUUUCUUC and CUCCUGACUCCAGGUCCUGUGU are within error of each other in “HRG-induced Akt activation (log2)” value: 1.72 ± 0.36 for the first, 1.43 ± 0.33 for the second.

CUCCUGAGCCAUUCUGAGCCUC and CUCGGCGCGGGGCGCGGGCUCC are within 0.2 log units of each other in “HRG-induced Akt activation (log2)” value: 1.48 ± 0.25 for the first, 1.37 ± 0.015 for the second.

CUCUAGAGGGAAGCACUUUCUC and CUCUAGAGGGAAGCACUUUCUG are within error of each other in “HRG-induced Akt activation (log2)” value: 1.85 ± 0.4 for the first, 2.15 ± 0.078 for the second.

First: CUCUAGAGGGAAGCGCUUUCUG
Second: CUCUCACCACUGCCCUCCCACAG
The “HRG-induced Akt activation (log2)” value of the first is lower: 1.51 ± 0.15 for the first, 1.9 ± 0.13 for the second.

Compared with CUCUUGAGGGAAGCACUUUCUGU, CUGAAGCUCAGAGGGCUCUGAU is lower in “HRG-induced Akt activation (log2)” value: 2.16 ± 0.45 for the first, 1.38 ± 0.13 for the second.

Going from CUGAAGUGAUGUGUAACUGAUCAG to CUGACCUAUGAAUUGACAGCC, the “HRG-induced Akt activation (log2)” value falls from 1.727 ± 0.0053 to 1.18 ± 0.15.

CUGACUGUUGCCGUCCUCCAG and CUGCAAAGGGAAGCCCUUUC are within error of each other in “HRG-induced Akt activation (log2)” value: 1.53 ± 0.13 for the first, 1.21 ± 0.33 for the second.

Going from CUGCAAUGUAAGCACUUCUUAC to CUGCCAAUUCCAUAGGUCACAG, the “HRG-induced Akt activation (log2)” value rises from 0.874 ± 0.36 to 1.47 ± 0.11.

CUGCCCUGGCCCGAGGGACCGA and CUGCGCAAGCUACUGCCUUGCU are within 0.2 log units of each other in “HRG-induced Akt activation (log2)” value: 1.21 ± 0.096 for the first, 1.07 ± 0.26 for the second.

First: CUGGACUGAGCCGUGCUACUGG
Second: CUGGAGAUAUGGAAGAGCUGUGU
The “HRG-induced Akt activation (log2)” value of the first is higher: 1.98 ± 0.076 for the first, 1.14 ± 0.047 for the second.

CUGGAUGGCUCCUCCAUGUCU and CUGGCCCUCUCUGCCCUUCCGU are within error of each other in “HRG-induced Akt activation (log2)” value: 1.96 ± 0.42 for the first, 1.18 ± 0.4 for the second.

CUGGGAGAAGGCUGUUUACUCU and CUGGGAGAGGGUUGUUUACUCC are within 0.2 log units of each other in “HRG-induced Akt activation (log2)” value: 1.04 ± 0.2 for the first, 0.876 ± 0.34 for the second.

Compared with CUGGGAGGUGGAUGUUUACUUC, CUGGGAUCUCCGGGGUCUUGGUU is higher in “HRG-induced Akt activation (log2)” value: 0.961 ± 0.055 for the first, 2 ± 0.076 for the second.

Compared with CUGGUACAGGCCUGGGGGACAG, CUGGUUUCACAUGGUGGCUUAG is higher in “HRG-induced Akt activation (log2)” value: 1.68 ± 0.29 for the first, 2.33 ± 0.15 for the second.

Going from CUGUAAUAUAAAUUUAAUUUAUU to CUGUACAGCCUCCUAGCUUUCC, the “HRG-induced Akt activation (log2)” value rises from 1.42 ± 0.037 to 2.26 ± 0.15.

CUGUACAGGCCACUGCCUUGC and CUGUAUGCCCUCACCGCUCA are within error of each other in “HRG-induced Akt activation (log2)” value: 1.88 ± 0.41 for the first, 2.27 ± 0.32 for the second.

First: CUGUGCGUGUGACAGCGGCUGA
Second: CUGUUGCCACUAACCUCAACCU
The “HRG-induced Akt activation (log2)” value of the first is lower: 0.692 ± 0.043 for the first, 1.07 ± 0.11 for the second.

CUUAGCAGGUUGUAUUAUCAUU and CUUAUCAGAUUGUAUUGUAAUU are within 0.2 log units of each other in “HRG-induced Akt activation (log2)” value: 1.81 ± 0.098 for the first, 1.87 ± 0.024 for the second.

Compared with CUUAUGCAAGAUUCCCUUCUAC, CUUCCUCGUCUGUCUGCCCC is lower in “HRG-induced Akt activation (log2)” value: 1.85 ± 0.23 for the first, 1.02 ± 0.055 for the second.

CUUCUUGUGCUCUAGGAUUGU and CUUGGCACCUAGCAAGCACUCA are within error of each other in “HRG-induced Akt activation (log2)” value: 1.13 ± 0.024 for the first, 1.45 ± 0.58 for the second.

CUUGGUUCAGGGAGGGUCCCCA and CUUUCAGUCAGAUGUUUGCUGC are within 0.2 log units of each other in “HRG-induced Akt activation (log2)” value: 1.58 ± 0.43 for the first, 1.67 ± 0.24 for the second.

CUUUCAGUCGGAUGUUUACAGC and CUUUCAGUCGGAUGUUUGCAGC are within 0.2 log units of each other in “HRG-induced Akt activation (log2)” value: 1.62 ± 0.098 for the first, 1.75 ± 0.2 for the second.

Compared with CUUUUUGCGGUCUGGGCUUGC, GAAAGCGCUUCCCUUUGCUGGA is lower in “HRG-induced Akt activation (log2)” value: 2.31 ± 0.28 for the first, 1.63 ± 0.082 for the second.

GAAAGCGCUUCUCUUUAGAGG and GAAAGUGCUUCCUUUUAGAGGC are within error of each other in “HRG-induced Akt activation (log2)” value: 1.51 ± 0.33 for the first, 0.832 ± 0.68 for the second.

Compared with GAAAUCAAGCGUGGGUGAGACC, GAACGCCUGUUCUUGCCAGGUGG is lower in “HRG-induced Akt activation (log2)” value: 1.77 ± 0.15 for the first, 1.4 ± 0.093 for the second.

GAACGCGCUUCCCUAUAGAGGGU and GAACGGCUUCAUACAGGAGUU are within error of each other in “HRG-induced Akt activation (log2)” value: 1.42 ± 0.13 for the first, 1.67 ± 0.12 for the second.

GAAGGCGCUUCCCUUUAGAGCG and GAAGGCGCUUCCCUUUGGAGU are within error of each other in “HRG-induced Akt activation (log2)” value: 1.1 ± 0.5 for the first, 1.41 ± 0.095 for the second.

Going from GAAGUGCUUCGAUUUUGGGGUGU to GAAGUGUGCCGUGGUGUGUCU, the “HRG-induced Akt activation (log2)” value rises from 1.12 ± 0.22 to 2.03 ± 0.31.

First: GAAGUUGUUCGUGGUGGAUUCG
Second: GAAUGUUGCUCGGUGAACCCCU
The “HRG-induced Akt activation (log2)” value of the first is higher: 2.11 ± 0.022 for the first, 1.33 ± 0.039 for the second.

GACACGGGCGACAGCUGCGGCCC was tested, and the “HRG-induced Akt activation (log2)” value was 1.03 ± 0.89.
